Results from ChEMBL document CHEMBL5523667, “Blood-stage antimalarial activity, favourable metabolic stability and in vivo toxicity of novel piperazine linked 7-chloroquinoline-triazole conjugates” (Eur J Med Chem, 2024).
Activity calls are given as the source filed them. The rule behind the calls is not given here.

Key:
Hemozoin = assay: Inhibition of beta-hematin formation in Plasmodium falciparum by UV-visible SpectraMax P340 plate reader analysis
Falcipain 2 = target: T1, Falcipain 2 (Plasmodium falciparum, UniProt Q9N6S8); assay: Binding affinity to N-terminal 6His-tagged recombinant Plasmodium falciparum FP2 expressed in Escherichia coli M15 assessed as dissociation constant incubated for 15 mins in presence of lysine reactive dye by microscale thermophoretic analysis
T1 sequence (Q9N6S8 whole entry): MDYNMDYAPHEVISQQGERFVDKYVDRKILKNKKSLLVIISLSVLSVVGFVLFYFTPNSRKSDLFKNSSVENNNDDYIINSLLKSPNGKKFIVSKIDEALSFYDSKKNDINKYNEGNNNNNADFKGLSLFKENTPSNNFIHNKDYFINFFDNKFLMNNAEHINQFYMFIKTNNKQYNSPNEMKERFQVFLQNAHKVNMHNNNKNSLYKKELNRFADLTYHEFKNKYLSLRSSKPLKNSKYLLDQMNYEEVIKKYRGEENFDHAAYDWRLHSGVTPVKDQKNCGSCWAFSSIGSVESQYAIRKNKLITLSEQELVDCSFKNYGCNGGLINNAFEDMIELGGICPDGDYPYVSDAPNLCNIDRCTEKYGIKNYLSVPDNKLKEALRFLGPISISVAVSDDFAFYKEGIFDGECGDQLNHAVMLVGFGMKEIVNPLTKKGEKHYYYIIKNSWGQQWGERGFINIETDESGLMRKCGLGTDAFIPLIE

Plasmodium falciparum [1] = assay: Antimalarial activity against schizont stage Plasmodium falciparum infected in erythrocytes assessed as reduction in proteolytic activity at 5 uM pre-incubated for 1 hr followed by Z-Phe-Arg-AMC addition and measured after 5 to 10 mins by confocal microscopic analysis relative to control; format: functional, Erythrocyte; set-up: scale not given: the % may be the effect or the level left; conditions: time 65-70 min
Plasmodium falciparum [2] = assay: Antimalarial activity against chloroquine-sensitive Plasmodium falciparum NF54 assessed as inhibition of parasite growth by lactate dehydrogenase assay; format: functional, organism-based
Plasmodium falciparum [3] = assay: Antimalarial activity against chloroquine-sensitive Plasmodium falciparum 3D7 assessed as growth inhibition at 1 to 2 uM; format: functional, organism-based; conditions: dose 1-2 µM
Plasmodium falciparum [4] = assay: Antimalarial activity against chloroquine-sensitive Plasmodium falciparum 3D7 assessed as growth inhibition at 1 uM relative to control; format: functional; set-up: scale not given: the % may be the effect or the level left
[5] = Cytotoxicity against CHO cells assessed as reduction in cell viability by MTT assay; format: toxicity, cell-based; conditions: Chinese hamster (Cricetulus griseus)
Plasmodium falciparum [6] = assay: Resistance index, ratio of IC50 for antimalarial activity against chloroquine-resistant Plasmodium falciparum K1 to IC50 for antimalarial activity against chloroquine-sensitive Plasmodium falciparum NF54; format: functional
Plasmodium falciparum [7] = assay: Antimalarial activity against chloroquine-resistant Plasmodium falciparum K1 assessed as inhibition of parasite growth by lactate dehydrogenase assay; format: functional, organism-based
[8] = Selectivity index, ratio of IC50 for cytotoxicity against CHO cells to IC50 for antimalarial activity against chloroquine-sensitive Plasmodium falciparum NF54; format: toxicity, cell-based; conditions: hamster, CHO cells versus Plasmodium falciparum NF54; read-out: Ratio IC50
Plasmodium falciparum [9] = assay: Antimalarial activity against synchronized ring stage Plasmodium falciparum assessed as reduction in hemozoin level at 25 to 100 nM incubated for 20 hrs by absorbance based analysis; format: functional, organism-based; conditions: dose 25-100 nM
Plasmodium falciparum [10] = assay: Antimalarial activity against synchronized ring stage Plasmodium falciparum assessed as accumulation of free heme at 25 to 100 nM incubated for 20 hrs by absorbance based analysis; format: functional, organism-based; conditions: dose 25-100 nM
Plasmodium falciparum [11] = assay: Antimalarial activity against chloroquine-sensitive Plasmodium falciparum 3D7 assessed as growth inhibition at 1 uM; format: functional, organism-based

SMILES	IC50 (Hemozoin) [µM]	IC50 (Plasmodium falciparum [2]) [µM]	other results
CCN(CC)Cc1cc(Nc2ccnc3cc(Cl)ccc23)ccc1O [AMODIAQUINE]	10.9		
CC(C)C[C@H](NC(=O)[C@H]1O[C@@H]1C(=O)O)C(=O)NCCCCN=C(N)N [E-64]			Kd (Falcipain 2): 1180 nM; Activity (Plasmodium falciparum [1]): 100%
COc1cccc(NC(=O)Cn2cc(CN3CCN(c4ccnc5cc(Cl)ccc45)CC3)nn2)c1	17.4	3.56	
O=C(Cn1cc(CN2CCN(c3ccnc4cc(Cl)ccc34)CC2)nn1)Nc1ccccc1	19.8	4.98	
O=C(OCc1cn(-c2ccnc3cc(Cl)ccc23)nn1)c1cccc([N+](=O)[O-])c1			Activity (Plasmodium falciparum [3]): inactive
Clc1ccc2c(N3CCN(Cc4cn(-c5ccccc5Cl)nn4)CC3)ccnc2c1			Activity (Plasmodium falciparum [4]): >50%
COC(=O)[C@H](Cc1ccccc1)NC(=O)Cn1cc(CN2CCN(c3ccnc4cc(Cl)ccc34)CC2)nn1			Activity (Plasmodium falciparum [3]): Active
Cc1cccc(NC(=O)Cn2cc(CN3CCN(c4ccnc5cc(Cl)ccc45)CC3)nn2)c1	17.2	3.5	
O=C(Cn1cc(CN2CCN(c3ccnc4cc(Cl)ccc34)CC2)nn1)Nc1ccccc1Cl	19.2	1.79	IC50 [5]: 126 µM; Ratio IC50 (Plasmodium falciparum [6]): 3.29; IC50 (Plasmodium falciparum [7]): 5.9 µM; selectivity ratio [8]: 70.3
O=[N+]([O-])c1cccc(-n2cc(CN3CCN(c4ccnc5cc(Cl)ccc45)CC3)nn2)c1			Activity (Plasmodium falciparum [4]): >50%
O=C(Cn1cc(CN2CCN(c3ccnc4cc(Cl)ccc34)CC2)nn1)Nc1cccc(Cl)c1	15.6	1.83	IC50 [5]: > 503 µM; Ratio IC50 (Plasmodium falciparum [6]): 4.74; IC50 (Plasmodium falciparum [7]): 8.68 µM; selectivity ratio [8]: > 275
Clc1ccc2c(N3CCN(Cc4cn(-c5ccnc6cc(Cl)ccc56)nn4)CC3)ccnc2c1			Activity (Plasmodium falciparum [3]): Active
Cc1ccc(NC(=O)Cn2cc(CN3CCN(c4ccnc5cc(Cl)ccc45)CC3)nn2)cc1	18.6	1.8	IC50 [5]: 33.8 µM; Ratio IC50 (Plasmodium falciparum [6]): 2.4; IC50 (Plasmodium falciparum [7]): 4.37 µM; selectivity ratio [8]: 18.8
O=C(Cn1cc(CN2CCN(c3ccnc4cc(Cl)ccc34)CC2)nn1)Nc1ccccc1F	21.3	3.16	
Cc1ccccc1NC(=O)Cn1cc(CN2CCN(c3ccnc4cc(Cl)ccc34)CC2)nn1	17.4	4.17	
COC(=O)[C@H](C)NC(=O)Cn1cc(COc2cccc3ccccc23)nn1			Activity (Plasmodium falciparum [3]): Active

SMILES	IC50 (Hemozoin) [µM]	IC50 (Plasmodium falciparum [2]) [µM]	other results
COc1ccc(NC(=O)Cn2cc(CN3CCN(c4ccnc5cc(Cl)ccc45)CC3)nn2)cc1	19.7	6.73	
CCOC(=O)CNC(=O)Cn1cc(CN2CCN(c3ccnc4cc(Cl)ccc34)CC2)nn1			Activity (Plasmodium falciparum [3]): Active
O=C(Cn1cc(CN2CCN(c3ccnc4cc(Cl)ccc34)CC2)nn1)Nc1ccc(Cl)cc1	8.4	4.68	
O=C(Cn1cc(CN2CCN(c3ccnc4cc(Cl)ccc34)CC2)nn1)Nc1cccc(F)c1	10.6	1.69	IC50 [5]: 146 µM; Ratio IC50 (Plasmodium falciparum [6]): 1.7; IC50 (Plasmodium falciparum [7]): 2.92 µM; selectivity ratio [8]: 86.5
Cc1ccccc1-n1cc(CN2CCN(c3ccnc4cc(Cl)ccc34)CC2)nn1			Activity (Plasmodium falciparum [4]): >50%
COc1ccccc1NC(=O)Cn1cc(CN2CCN(c3ccnc4cc(Cl)ccc34)CC2)nn1	14	3.26	
Clc1ccc2c(N3CCN(Cc4cn(-c5ccnc6ccccc56)nn4)CC3)ccnc2c1			Activity (Plasmodium falciparum [3]): Active
O=C(Cn1cc(CN2CCN(c3ccnc4cc(Cl)ccc34)CC2)nn1)Nc1ccccc1[N+](=O)[O-]	21.4	2.9	
O=C(Cn1cc(CN2CCN(c3ccnc4cc(Cl)ccc34)CC2)nn1)Nc1ccc(F)cc1	20.6	1.74	IC50 [5]: 326 µM; Ratio IC50 (Plasmodium falciparum [6]): 1.77; IC50 (Plasmodium falciparum [7]): 3.08 µM; selectivity ratio [8]: 188
CCN(CC)CCCC(C)Nc1ccnc2cc(Cl)ccc12 (configuration not stated) [CHLOROQUINE]	23.3		Activity (Plasmodium falciparum [9]): Active; Activity (Plasmodium falciparum [10]): Active
Clc1ccc2c(N3CCN(Cc4cn(-c5cccc6ccccc56)nn4)CC3)ccnc2c1			Activity (Plasmodium falciparum [3]): inactive
C[C@@H](NC(=O)Cn1cc(CN2CCN(c3ccnc4cc(Cl)ccc34)CC2)nn1)C(=O)O			Activity (Plasmodium falciparum [3]): inactive
COC(=O)c1ccc(NC(=O)Cn2cc(CN3CCN(c4ccnc5cc(Cl)ccc45)CC3)nn2)cc1	12.7	4.14	
O=C(Cn1cc(CN2CCN(c3ccnc4cc(Cl)ccc34)CC2)nn1)Nc1ccc([N+](=O)[O-])cc1	28.9	3.23	
COC(=O)[C@H](C)NC(=O)Cn1cc(CN2CCN(c3ccnc4cc(Cl)ccc34)CC2)nn1			Activity (Plasmodium falciparum [11]): Active
O=C(Cn1cc(CN2CCN(c3ccnc4cc(Cl)ccc34)CC2)nn1)Nc1ccc(Br)cc1	19.4	6.45	
